Laboratory results from patent publication US20180057505A1, “BICYCLIC HETEROARYL COMPOUNDS USEFUL AS INHIBITORS OF THE PAR-2 SIGNALING PATHWAY” (VERTEX PHARMACEUTICALS INCORPORATED, priority 2015, published 2018).

What was measured:
Type in all cases: cell-based
[1] = molecular target: T1, PAR2 (HT-29 cells) (Homo sapiens, UniProt P55085); assay: Ca FLIPR TETRA assay, ANTAGONIST mode, activator 8 μM SLIGKV; details: HT-29 cells; activator 8 μM SLIGKV; Method A: maximal concentration of antagonist 0.1, 1 or 2 μM
T1 construct: host or cells: HT-29
T1 sequence (P55085 26-397): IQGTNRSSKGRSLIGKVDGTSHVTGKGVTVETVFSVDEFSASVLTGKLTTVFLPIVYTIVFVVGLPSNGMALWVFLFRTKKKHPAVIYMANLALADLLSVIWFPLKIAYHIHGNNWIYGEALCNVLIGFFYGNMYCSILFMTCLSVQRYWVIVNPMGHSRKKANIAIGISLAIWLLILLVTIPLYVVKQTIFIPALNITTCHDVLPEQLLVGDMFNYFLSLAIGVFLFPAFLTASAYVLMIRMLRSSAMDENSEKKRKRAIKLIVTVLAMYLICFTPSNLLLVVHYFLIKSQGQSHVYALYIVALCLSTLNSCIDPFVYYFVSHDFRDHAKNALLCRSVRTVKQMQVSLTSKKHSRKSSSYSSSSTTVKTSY
Method in brief: (§1)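 HT-29 cells in 1% FBS/McCoy's overnight, loaded with FLIPR Calcium 5 dye (45 min 37 °C, 15 min r.t.); compounds added and read for intrinsic Ca2+ activation, then after 30 min r.t. stimulated with fixed activator: 8 μM SLIGKV, 0.6 μM UTP, 1 U/mL thrombin or 3.1 U/mL trypsin (final).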

[2] = molecular target: T1, PAR2 (HT-29 cells); assay: Ca FLIPR TETRA assay, ANTAGONIST mode, activator 3.1 U/mL trypsin; details: HT-29 cells; activator 3.1 U/mL trypsin; Method A: maximal concentration of antagonist 0.1, 1 or 2 μM
Method in brief: as §1

[3] = system: Thrombin-stimulated Ca2+ response in HT-29 cells; assay: Ca FLIPR TETRA assay, ANTAGONIST mode, activator 1 U/mL Thrombin; details: HT-29 cells, activator 1 U/mL Thrombin
Method in brief: as §1

[4] = system: UTP-stimulated Ca2+ response in HT-29 cells; assay: Ca FLIPR TETRA assay, ANTAGONIST mode, activator 0.6 μM UTP; details: HT-29 cells, activator 0.6 μM UTP
Method in brief: as §1

Row | IC50 [1] [nM] | IC50 [2] [nM] | IC50 ([3]; Homo sapiens) [nM] | IC50 ([4]; Homo sapiens) [nM] | IC50 [3] [nM] | IC50 [4] [nM] | Compound
1 | 0.3 | 0.8 | > 2000 | > 2000 |  |  | CC(C)(C)c1cc(-c2ccc(Cl)c(F)c2)nc2cc(C(=O)N3CCN(c4ccc(C(=O)O)c(N)n4)CC3(C)C)oc12 [Example I-510]
2 | 43 | 49.5 | > 2000 | > 2000 |  |  | CC(C)(C)c1cc(-c2ccc(Cl)cc2)nc2cc(C(=O)N3CCN(C(=O)[C@@H]4CCCC[C@H]4C(=O)O)CC3(C)C)oc12 [Example I-511]
3 | 19 | 18 | > 2000 | > 2000 |  |  | CC(C)(C)c1cc(-c2ccc(Cl)c(F)c2)nc2cc(C(=O)N3CCN(C(=O)[C@@H]4CC[C@H](C(=O)O)C4)CC3(C)C)oc12 [Example I-512]
4 | 16 | 21 | > 2000 | > 2000 |  |  | CC(C)(C)c1cc(-c2ccc(Cl)c(F)c2)nc2cc(C(=O)N3CCN(c4cc(C(F)(F)F)cnc4C(=O)O)CC3(C)C)oc12 [Example I-515]
5 | 1.8 | 2.7 | > 2000 | > 2000 |  |  | CC(C)(C)c1cc(-c2ccc(Cl)c(F)c2)nc2cc(C(=O)N3CCN(c4nc(-c5ccccc5)ccc4C(=O)O)CC3(C)C)oc12 [Example I-516]
6 | 1.4 | 2.3 | > 2000 | > 2000 |  |  | CC(C)(C)c1cc(-c2ccc(Cl)c(F)c2)nc2cc(C(=O)N3CCN(c4cc(C(=O)O)c(F)cn4)CC3(C)C)oc12 [Example I-517]
7 | 10 | 17 | > 2000 | > 2000 |  |  | CC(C)(C)c1cc(-c2ccc(Cl)c(F)c2)nc2cc(C(=O)N3CCN(c4ncc(F)cc4C(=O)O)CC3(C)C)oc12 [Example I-518]
8 | 14 | 26 | > 2000 | > 2000 |  |  | CC(C)(C)c1cc(-c2ccc(Cl)c(F)c2)nc2cc(C(=O)N3CCN(c4ncncc4C(=O)O)CC3(C)C)oc12 [Example I-519]
9 | 0.3 | 0.4 | > 2000 | > 2000 |  |  | Cc1cnc(N2CCN(C(=O)c3cc4nc(-c5ccc(Cl)c(F)c5)cc(C(C)(C)C)c4o3)C(C)(C)C2)nc1C(=O)O [Example I-520]
10 | 0.7 | 1.2 | > 2000 | > 2000 |  |  | Cc1cnc(N2CCN(C(=O)c3cc4nc(-c5ccc(Cl)cc5)cc(C(C)(C)C)c4o3)C(C)(C)C2)nc1C(=O)O [Example I-521]
11 | 2.5 | 2.6 | > 2000 | > 2000 |  |  | CN1CCN(C(=O)c2cc3nc(-c4ccc(Cl)c(F)c4)cc(C(C)(C)C)c3o2)C(C)(C)CC1=O [Example I-522]
12 | 2 | 1.9 | > 2000 | > 2000 |  |  | Cc1cc(C(=O)N2CCN(C(=O)c3cc4nc(C5CCC(C)(C)CC5)cc(C(C)(C)C)c4o3)C(C)(C)C2)[nH]n1 [Example I-523]
13 | 2 | 2.6 | > 2000 | > 2000 |  |  | Cc1ncc(N2CCN(C(=O)c3cc4nc(-c5ccc(Cl)c(F)c5)cc(C(C)(C)C)c4o3)C(C)(C)C2)nc1C(=O)O [Example I-524]
14 | 0.7 | 1.4 |  |  | 1600 | 1650 | Cc1ncc(N2CCN(C(=O)c3cc4nc(C5CCC(C)(C)CC5)cc(C(C)(C)C)c4o3)C(C)(C)C2)nc1C(=O)O [Example I-525]
15 | 240 | 147 | > 2000 | > 2000 |  |  | CN1CC(C)(C)N(C(=O)c2cc3nc(-c4ccc(Cl)c(F)c4)cc(C(C)(C)C)c3o2)CCC1=O [Example I-526]
16 | 31 | 45 | > 2000 | > 2000 |  |  | CC(C)(C)c1cc(-c2ccc(Cl)c(F)c2)nc2cc(C(=O)N3CCN(C(=O)NS(C)(=O)=O)CC3(C)C)oc12 [Example I-527]
17 | 270 | 250 | > 2000 | > 2000 |  |  | Cc1cc(C(=O)O)c(N2CCN(C(=O)c3cc4nc(-c5ccc(Cl)c(F)c5)cc(C(C)(C)C)c4o3)C(C)(C)C2)nn1 [Example I-528]
18 | 1 | 1.2 | > 2000 | > 2000 |  |  | CC(C)(C)c1cc(-c2ccc(Cl)c(F)c2)nc2cc(C(=O)N3CCN(c4ccc(-c5nnn[nH]5)cn4)CC3(C)C)oc12 [Example I-529]

Row | IC50 [1] [nM] | IC50 [2] [nM] | IC50 ([3]; Homo sapiens) [nM] | IC50 ([4]; Homo sapiens) [nM] | IC50 [3] [nM] | IC50 [4] [nM] | Compound
19 | 6.8 | 5 | > 2000 | > 2000 |  |  | Cn1cnnc1N1CCN(C(=O)c2cc3nc(C4CCC(C)(C)CC4)cc(C(C)(C)C)c3o2)C(C)(C)C1 [Example I-530]
20 | 1.5 | 2.8 | > 2000 | > 2000 |  |  | CC(C)(C)c1cc(-c2ccc(Cl)cc2)nc2cc(C(=O)N3CCN(c4ccc(-c5nnn[nH]5)cn4)CC3(C)C)oc12 [Example I-531]
21 | 0.3 | 0.3 | > 2000 | > 2000 |  |  | Cc1ccc(N2CCN(C(=O)c3cc4nc(-c5ccc(Cl)c(F)c5)cc(C(C)(C)C)c4o3)C(C)(C)C2)nc1-c1nnn[nH]1 [Example I-532]
22 | 0.7 | 1.7 | > 2000 | > 2000 |  |  | Cc1ccc(N2CCN(C(=O)c3cc4nc(C5CCC(C)(C)CC5)cc(C(C)(C)C)c4o3)C(C)(C)C2)nc1-c1nnn[nH]1 [Example I-533]
23 | 0.2 | 0.1 | > 2000 | > 2000 |  |  | COc1cc(N2CCN(C(=O)c3cc4nc(-c5ccc(Cl)c(F)c5)cc(C(C)(C)C)c4o3)C(C)(C)C2)ncc1C(=O)O [Example I-534]
24 | 2.1 | 1.2 |  |  | > 2000 | > 2000 | COc1nc(N2CCN(C(=O)c3cc4nc(C5CCC(C)(C)CC5)cc(C(C)(C)C)c4o3)C(C)(C)C2)ccc1C(=O)O [Example I-535]
25 | 2.3 | 2.2 | > 2000 | > 2000 |  |  | CC(C)(C)c1cc(-c2ccc(Cl)cc2)nc2cc(C(=O)N3CCN(C(=O)[C@@H]4CC[C@H](C(=O)O)C4)CC3(C)C)oc12 [Example I-536]
26 | 0.3 | 0.4 | > 2000 | > 2000 |  |  | Cc1ccc(N2CCN(C(=O)c3cc4nc(-c5ccc(Cl)cc5)cc(C(C)(C)C)c4o3)C(C)(C)C2)nc1-c1nnn[nH]1 [Example I-537]
27 | 0.6 | 0.6 | 1500 | 1470 |  |  | Cc1c(C(=O)O)ccnc1N1CCN(C(=O)c2cc3nc(-c4ccc(Cl)c(F)c4)cc(C(C)(C)C)c3o2)C(C)(C)C1 [Example I-538]
28 | 1.5 | 2.2 |  |  | > 2000 | > 2000 | CC1(C)CCC(c2cc(C(C)(C)C)c3oc(C(=O)N4CCN(c5ccc(-c6nnn[nH]6)cn5)CC4(C)C)cc3n2)CC1 [Example I-539]
29 | 0.3 | 0.3 | > 2000 | > 2000 |  |  | CC(C)(C)c1cc(-c2ccc(Cl)c(F)c2)nc2cc(C(=O)N3CCN(c4cccc(C(=O)NS(C)(=O)=O)n4)CC3(C)C)oc12 [Example I-540]
30 | 1.5 | 1 | > 2000 | > 2000 |  |  | CC(C)(C)c1cc(-c2ccc(Cl)c(F)c2)nc2cc(C(=O)N3CCC(NC(=O)NS(C)(=O)=O)CC3(C)C)oc12 (stereo not drawn) [Example I-541]
31 | 32 | 28 | > 2000 | > 2000 |  |  | CC(C)(C)c1cc(-c2ccc(Cl)c(F)c2)nc2cc(C(=O)N3CCN(S(=O)(=O)NC4CC4)CC3(C)C)oc12 [Example I-542]
32 | 0.6 | 0.8 | > 2000 | > 2000 |  |  | CC(C)(C)c1cc(-c2ccc(Cl)c(F)c2)nc2cc(C(=O)N3CCN(C(=O)[C@@H]4CC[C@@H]4C(=O)O)CC3(C)C)oc12 [Example I-543]
33 | 2.5 | 3.3 | > 2000 | > 2000 |  |  | Cc1ncc(N2CCN(C(=O)c3cc4nc(C5CCC(C)(C)CC5)cc(C(C)(C)C)c4o3)C(C)(C)C2)nc1C(=O)O [Example I-544]
34 | 0.6 | 0.9 | > 2000 | > 2000 |  |  | CC(C)(C)c1cc(-c2ccc(Cl)c(F)c2)nc2cc(C(=O)N3CCN(C(=O)[C@@H]4CCC[C@@H]4C(=O)O)CC3(C)C)oc12 [Example I-545]
35 | 5.4 | 7.4 | > 2000 | > 2000 |  |  | CC(C)(C)c1cc(-c2ccc(Cl)c(F)c2)nc2cc(C(=O)N3CCN(c4cccc(C(N)=O)n4)CC3(C)C)oc12 [Example I-546]
36 | 0.09 | 0.1 | > 2000 | > 2000 |  |  | CC(C)(C)c1cc(-c2ccc(Cl)c(F)c2)nc2cc(C(=O)N3CCN(C(=O)CC4(C(=O)O)CCCCC4)CC3(C)C)oc12 [Example I-547]
